Assay results as given in the supplement of paper PMC10307832.

Columns and labels:
Experiment in all cases: relative viability (nuclei count vs DMSO), 5 days (fraction); higher = more cells survive
[1] = compound: COc1ccc(-c2ccc3c(N4CCOC[C@@H]4C)nc(N4CCOC[C@@H]4C)nc3n2)cc1CO [AZD8055] + CC(=O)c1c(C)c2cnc(Nc3ccc(N4CCNCC4)cn3)nc2n(C2CCCC2)c1=O [Palbociclib] (partner 0.5 µM)
In short: (§1)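 Nuclei were stained with Hoechst during a one-step fixation (final 0.05% Triton X-100, 1% formaldehyde, 1 ug/ml Hoechst) carried out 5 days after dosing, then counted on 4× images. The cells, lung cancer lines in 1536-well plates, had been dosed by pin tool the day after seeding with one drug alone or a fixed anchor-drug dose plus five library-drug doses (not always all listed) in √10 steps. Relative viability is the nuclei count in treated wells divided by that in vehicle wells, and each value is the median of duplicate plates.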

[2] = compound: COc1ccc(-c2ccc3c(N4CCOC[C@@H]4C)nc(N4CCOC[C@@H]4C)nc3n2)cc1CO [AZD8055] + COc1cc2c(Oc3ccc(NC(=O)C4(C(=O)Nc5ccc(F)cc5)CC4)cc3F)ccnc2cc1OCCCN1CCOCC1 [Foretinib] (partner 0.25 µM)
In short: as §1

[3] = compound: COc1ccc(-c2ccc3c(N4CCOC[C@@H]4C)nc(N4CCOC[C@@H]4C)nc3n2)cc1CO [AZD8055] + CS(=O)(=O)N1CCN(Cc2cc3nc(-c4cccc5[nH]ncc45)nc(N4CCOCC4)c3s2)CC1 [Pictilisib] (partner 1 µM)
In short: as §1

[4] = compound: COc1ccc(-c2ccc3c(N4CCOC[C@@H]4C)nc(N4CCOC[C@@H]4C)nc3n2)cc1CO [AZD8055] + CC(C)C[C@H](NC(=O)[C@H](Cc1ccccc1)NC(=O)c1cnccn1)B(O)O [Bortezomib] (partner 0.002 µM)
In short: as §1

| Cell Line | relative viability ([1]; first compound 0.01 µM) | relative viability ([1]; first compound 0.03162 µM) | relative viability ([1]; first compound 0.1 µM) | relative viability ([1]; first compound 0.3162 µM) | relative viability ([1]; first compound 1 µM) | relative viability ([2]; first compound 0.01 µM) | relative viability ([2]; first compound 0.03162 µM) | relative viability ([2]; first compound 0.1 µM) | relative viability ([2]; first compound 0.3162 µM) | relative viability ([2]; first compound 1 µM) | relative viability ([3]; first compound 0.01 µM) | relative viability ([3]; first compound 0.03162 µM) | relative viability ([3]; first compound 0.1 µM) | relative viability ([3]; first compound 0.3162 µM) | relative viability ([3]; first compound 1 µM) | relative viability ([4]; first compound 0.01 µM) | relative viability ([4]; first compound 0.03162 µM) | relative viability ([4]; first compound 0.1 µM) | relative viability ([4]; first compound 0.3162 µM) | relative viability ([4]; first compound 1 µM) |
| --- | --- | --- | --- | --- | --- | --- | --- | --- | --- | --- | --- | --- | --- | --- | --- | --- | --- | --- | --- | --- |
| LCLC-103H | 0.52 | 0.48 | 0.398 | 0.468 | 0.421 | 0.72 | 0.616 | 0.583 | 0.359 | 0.281 | 0.612 | 0.572 | 0.546 | 0.52 | 0.332 | 1.15 | 0.934 | 0.93 | 0.745 | 0.673 |
| LOU-NH91 | 0.531 | 0.536 | 0.589 | 0.552 | 0.497 | 0.982 | 0.891 | 0.761 | 0.562 | 0.561 | 0.546 | 0.542 | 0.512 | 0.478 | 0.491 | 0.452 | 0.512 | 0.489 | 0.497 | 0.381 |
| LU99A | 0.312 | 0.285 | 0.167 | 0.198 | 0.2 | 0.859 | 0.627 | 0.681 | 0.264 | 0.302 | 0.281 | 0.18 | 0.168 | 0.195 | 0.22 | 0.936 | 0.549 | 0.374 | 0.235 | 0.209 |
| LXF-289 | 0.621 | 0.581 | 0.578 | 0.3 | 0.23 | 1.05 | 1.02 | 0.962 | 0.763 | 0.72 | 0.83 | 0.673 | 0.556 | 0.411 | 0.454 | 1.06 | 0.982 | 0.951 | 0.682 | 0.756 |
| NCI-H23 | 0.439 | 0.367 | 0.295 | 0.193 | 0.187 | 1.02 | 0.841 | 0.584 | 0.451 | 0.347 | 0.472 | 0.314 | 0.314 | 0.251 | 0.293 | 1.3 | 0.881 | 0.791 | 0.27 | 0.271 |
| NCI-H322M | 0.457 | 0.492 | 0.383 | 0.468 | 0.41 | 0.933 | 0.802 | 0.781 | 0.573 | 0.6 | 0.46 | 0.463 | 0.436 | 0.444 | 0.422 | 1.24 | 1.34 | 1.17 | 0.894 | 1.11 |
| NCI-H441 | 0.178 | 0.185 | 0.179 | 0.144 | 0.14 | 0.925 | 0.94 | 0.68 | 0.349 | 0.37 | 0.518 | 0.483 | 0.375 | 0.215 | 0.267 | 0.502 | 0.577 | 0.396 | 0.168 | 0.186 |
| NCI-H460 | 0.154 | 0.108 | 0.0839 | 0.0295 | 0.0277 | 1.12 | 1.09 | 0.812 | 0.376 | 0.206 | 0.338 | 0.295 | 0.262 | 0.226 | 0.264 | 1.25 | 0.79 | 0.44 | 0.195 | 0.0935 |
| NCI-H520 | 0.167 | 0.15 | 0.156 | 0.141 | 0.161 | 0.635 | 0.344 | 0.35 | 0.173 | 0.172 | 0.301 | 0.19 | 0.202 | 0.163 | 0.159 | 0.623 | 0.185 | 0.16 | 0.127 | 0.147 |
| NCI-H647 | 0.348 | 0.219 | 0.245 | 0.102 | 0.0993 | 1.18 | 0.941 | 0.61 | 0.405 | 0.229 | 0.46 | 0.329 | 0.282 | 0.16 | 0.149 | 1.71 | 0.748 | 0.541 | 0.266 | 0.17 |
| NCI-H650 | 0.371 | 0.307 | 0.273 | 0.196 | 0.165 | 1.12 | 0.995 | 0.773 | 0.541 | 0.368 | 0.905 | 0.736 | 0.623 | 0.307 | 0.304 | 0.658 | 0.511 | 0.681 | 0.343 | 0.291 |
| NCI-H661 | 0.37 | 0.368 | 0.303 | 0.291 | 0.362 | 1.06 | 0.99 | 0.795 | 0.5 | 0.425 | 0.394 | 0.424 | 0.322 | 0.302 | 0.27 | 1.09 | 0.619 | 0.758 | 0.396 | 0.295 |
| NCI-H727 | 0.621 | 0.635 | 0.572 | 0.573 | 0.51 | 0.713 | 0.89 | 0.717 | 0.307 | 0.394 | 0.4 | 0.379 | 0.28 | 0.225 | 0.283 | 0.976 | 0.824 | 0.698 | 0.388 | 0.275 |
| NCI-H838 | 0.214 | 0.156 | 0.163 | 0.16 | 0.17 | 1 | 0.913 | 0.597 | 0.398 | 0.347 | 0.439 | 0.212 | 0.212 | 0.219 | 0.257 | 1.37 | 0.513 | 0.302 | 0.227 | 0.298 |
| NCI-H1355 | 0.323 | 0.284 | 0.219 | 0.215 | 0.218 | 0.865 | 0.77 | 0.712 | 0.332 | 0.278 | 0.419 | 0.374 | 0.269 | 0.251 | 0.238 | 1.23 | 1.06 | 0.9 | 0.309 | 0.315 |
| NCI-H1437 | 0.358 | 0.434 | 0.338 | 0.221 | 0.203 | 1.38 | 1.37 | 1.24 | 0.869 | 0.482 | 0.394 | 0.225 | 0.223 | 0.124 | 0.127 | 0.611 | 0.549 | 0.422 | 0.206 | 0.209 |
